The test has as its target T1, KGA_D520K (Homo sapiens, UniProt O94925, D520K).
T1 construct: a KGA cDNA fragment of 1644 bp (residues Leu123-Leu669); His-tag (N); made in house; host or cells: Escherichia coli
T1 sequence (O94925 123-669 D520K): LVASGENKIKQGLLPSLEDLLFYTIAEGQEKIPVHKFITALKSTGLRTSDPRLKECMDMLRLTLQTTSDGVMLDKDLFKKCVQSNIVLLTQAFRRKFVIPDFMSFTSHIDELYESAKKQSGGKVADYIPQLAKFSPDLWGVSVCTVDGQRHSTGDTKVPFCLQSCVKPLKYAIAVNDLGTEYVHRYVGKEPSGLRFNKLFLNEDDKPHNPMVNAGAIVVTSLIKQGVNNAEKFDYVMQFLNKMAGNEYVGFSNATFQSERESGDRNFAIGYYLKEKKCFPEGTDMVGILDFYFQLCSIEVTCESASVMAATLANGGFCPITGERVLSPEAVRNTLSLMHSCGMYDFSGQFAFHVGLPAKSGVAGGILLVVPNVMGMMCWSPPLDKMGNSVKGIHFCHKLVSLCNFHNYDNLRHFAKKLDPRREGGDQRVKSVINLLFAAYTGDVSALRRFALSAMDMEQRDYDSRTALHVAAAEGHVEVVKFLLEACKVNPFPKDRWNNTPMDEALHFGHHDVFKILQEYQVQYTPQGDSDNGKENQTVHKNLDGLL
Kind of test: Glutaminase activity assay, KGA mutant D520K. Format: biochemical. As for the experimental part:
Human glutaminase activity was measured using a two-step assay as described previously. A microtiter assay format was used to facilitate the collection of multiple data points. Typically, 10 μl of compound, which was dissolved in DMSO, was added to 80 μl of an initial assay mix (0.1 mM hKGA, 0.2 mM EDTA and 50 mM Tris/acetate, pH 8.6). Samples were incubated at 25°C for 10 min and then 10 μl of 200 mM glutamine were added to the reaction mix. After adding glutamine, the reactions were incubated at 37°C for 60 min and then quenched by the addition of 10 μl of 0.6 M HCl. Subsequently, 100 μl of a second reaction mixture (3.7 units of purified bovine liver glutamate dehydrogenase, 160 mM Tris/acetate [pH 9.4], 400 mM hydrazine, 5 mM ADP and 2 mM NAD^+) was added to the stopped first reaction mixture and incubated for 30 min at 25°C. The absorbance at 340 nm was measured using a Wallac Victor2V plate reader (PerkinElmer), fitted with a 340 nm excitation filter. Sample absorbance was measured against a blank, containing no human glutaminase.
Site-directed mutagenesis was performed on the pET28a(+)-GAB or pET28a(+)-KGA plasmids using PfuUltra II Fusion HS DNA polymerase (Agilent Technologies) to create the GAB and KGA mutants. […] The sequence alignment was compared with crystal structure of the GAC (PDB code: 3UO9) and the resulting model of GAB was analyzed using the Swiss-PDB server. […]

Among the data in paper PMC4171615, “Discovery of selective inhibitors of Glutaminase-2, which inhibit mTORC1, activate autophagy and inhibit proliferation in cancer cells” (Oncotarget, 2014) are IC50 values, retold here.

Structures are written as SMILES.

With `CCCCCCCCCCCCCC(CC1=CC(=O)C=C(OC)C1=O)OC(C)=O` (stereo not shown) [AV-1], the 50% inhibitory concentration (IC50) (commonly the concentration that inhibits the measured activity by half) stood at 290 ± 30 nM.
